Reference: patent publication US9833433B1, “Compositions, methods of use, and methods of treatment” (priority 2013, dated 2017)

What was measured:
[1] = test system: dendritic spines of CA1 pyramidal neurons; assay: Two-photon imaging of dendritic spines in CA1 pyramidal neurons; format: in vivo, mice; settings: repeated Δ^9-THC exposure; Thy1-GFP mice
Experimental: Morphology of dendritic spines in hippocampal CA1 pyramidal neurons was determined in GFP-expressing transgenic mice using a two-photon laser scanning microscope as described previously (Chen et al., 2012). Shape, size, and density of spines were measured from the three-dimensional reconstructions using NeuronStudio Version 0.9.92.
Morphology of dendritic spines in hippocampal CA1 pyramidal neurons was determined in GFP-expressing transgenic mice treated with vehicle, Δ^9-THC or NS398+Δ^9-THC using a two-photon laser scanning microscope (Chameleon hands-free ultrafast Ti: sapphire laser with an Olympus scan head) with Olympus FLUOVIEW 300 software (Chen et al., 2012). Shape (thin, mushroom, or stubby), size, density, and volume of spines were measured from the three-dimensional reconstructions (Z stacks: 1μ step for the whole cell and 0.1μ step for a segment of dendrites) using AutoQuant X2 or 3D deconvolution plugin of Image J (http://bigwww.epfl.ch/algorithms/deconvolutionlab) and NeuronStudio (for 3D reconstruction of imaged dendritic spines, Version 0.9.92; http://research.mssm.edu/cnic/tools-ns.html, CNIC, Mount Sinai School of Medicine). […] The following parameters were used in analyzing and quantifying spines using NeuronStudio: Voxel size was set as 0.029*0.029*0.3 μm. […]

degenerated neurons = assay: Degenerated neurons by Fluoro-Jade C staining in 5XFAD APP transgenic mice; format: in vivo; settings: Δ^9-THC 3 mg/kg once daily for 4 weeks
Experimental: Degenerated neurons were detected using Fluoro-Jade C (FJC), which is an anionic dye that specifically stains the soma and neurites of degenerating neurons and thus is unique as a neurodegenerative marker. Cryostat cut sections were incubated in the solution with FJC (0.0001% solution, EMD Millipore) and DAPI (0.5 μg/ml) for 10 min, followed by 3×1-min wash with distilled water. Slices were dried naturally at room temperature without light. The images were taken using a Zeiss deconvolution microscope with SlideBook 5.0 software as described previously (Chen et al., 2012).

EAAT1, EAAT2, and EAAT3 = assay: Hippocampal expression of glutamate transporters (immunoblot); settings: Δ^9-THC 10 mg/kg once a day for 7 days
NF-κB = NF-κB phosphorylation in NG108-15 cells
PGE2 = PGE2 assay in hippocampal tissue (enzyme immunoassay); format: in vivo, mice; settings: 10 mg/kg; detected 4 hrs after injection
Description: PGE2 in hippocampal tissue was detected using PGE2 enzyme immunoassay kit (Cayman Chemical, Ann Arbor, Mich.) according to the procedure described by the manufacturer (Zhang and Chen, 2008).

locomotor activity = assay: Open field test (locomotor activity); format: in vivo, mice; settings: Δ^9-THC 10 mg/kg; 30 min open field
Experimental: The classic Morris water maze and fear conditioning tests were performed to determine spatial and fear memory as described previously (Chen et al., 2012). The ‘open field’ test was conducted to detect the locomotor activity and the bar test was used to detect catalepsy (Egashira et al., 2007).
The ‘open field’ test was conducted using an automatic-recording open-field working station (MED Associates, Georgia, Vt.). During the test, mice were individually released into the center of the box immediately after injections of Δ^9-THC, NS398, Δ^9-THC+NS398, Celebrex or Celebrex+Δ^9-THC. Celebrex and NS398 were injected 30 min prior to Δ^9-THC injection and allowed to explore the field for 30 min and their behaviors were recorded by a photobeam-scanning system and a video camera simultaneously. Data were analyzed automatically by the computer-sampling system.

In the case of `CCCCCc1cc(O)c2c(c1)OC(C)(C)[C@@H]1CCC(C)=C[C@@H]21` [Δ^9-THC, Δ^9-tetrahydrocannabinol], the “density of dendritic spines” value [1] was “significantly reduced density of dendritic spines of CA1 pyramidal neurons”, the “numbers of degenerated neurons” value (degenerated neurons; absence of Celebrex) was “significantly reduced” and the “numbers of degenerated neurons” value (degenerated neurons; presence of Celebrex 1 mg/kg) was “significantly reduced”. The “expression of glutamate transporters” value (EAAT1, EAAT2, and EAAT3) was “down-regulated”, the NF-κB phosphorylation (NF-κB) was “induced NF-κB phosphorylation” and the “hippocampal PGE2 production after cannabinoid injection” value (PGE2) was “elevated production of prostaglandin E2 (PGE2)”. The locomotor depressive effect (locomotor activity) was “cataleptic and locomotor depressive effects”.
